Laboratory results as given in publication PMC6873183, “Mechanically activated Piezo1 channels of cardiac fibroblasts stimulate p38 mitogen-activated protein kinase activity and interleukin-6 secretion” (The Journal of Biological Chemistry, 2019).

Tests used:
[1] = target: T1, Piezo1 (human cardiac fibroblasts, endogenous) (Homo sapiens, UniProt Q92508); test: Fura-2 intracellular Ca2+ assay, 96-well plate reader; format: cell-based; conditions: activator (agonist); native human cardiac fibroblasts; 2.5 mM probenecid, 1.5 mM CaCl2, pH 7.4; estimate, Yoda1 limited to 10 μM by solubility
T1 construct: endogenous full-length channel in cultured human atrial cardiac fibroblasts; Yoda1 response reduced by Piezo1 siRNA
T1 sequence (Q92508 whole entry): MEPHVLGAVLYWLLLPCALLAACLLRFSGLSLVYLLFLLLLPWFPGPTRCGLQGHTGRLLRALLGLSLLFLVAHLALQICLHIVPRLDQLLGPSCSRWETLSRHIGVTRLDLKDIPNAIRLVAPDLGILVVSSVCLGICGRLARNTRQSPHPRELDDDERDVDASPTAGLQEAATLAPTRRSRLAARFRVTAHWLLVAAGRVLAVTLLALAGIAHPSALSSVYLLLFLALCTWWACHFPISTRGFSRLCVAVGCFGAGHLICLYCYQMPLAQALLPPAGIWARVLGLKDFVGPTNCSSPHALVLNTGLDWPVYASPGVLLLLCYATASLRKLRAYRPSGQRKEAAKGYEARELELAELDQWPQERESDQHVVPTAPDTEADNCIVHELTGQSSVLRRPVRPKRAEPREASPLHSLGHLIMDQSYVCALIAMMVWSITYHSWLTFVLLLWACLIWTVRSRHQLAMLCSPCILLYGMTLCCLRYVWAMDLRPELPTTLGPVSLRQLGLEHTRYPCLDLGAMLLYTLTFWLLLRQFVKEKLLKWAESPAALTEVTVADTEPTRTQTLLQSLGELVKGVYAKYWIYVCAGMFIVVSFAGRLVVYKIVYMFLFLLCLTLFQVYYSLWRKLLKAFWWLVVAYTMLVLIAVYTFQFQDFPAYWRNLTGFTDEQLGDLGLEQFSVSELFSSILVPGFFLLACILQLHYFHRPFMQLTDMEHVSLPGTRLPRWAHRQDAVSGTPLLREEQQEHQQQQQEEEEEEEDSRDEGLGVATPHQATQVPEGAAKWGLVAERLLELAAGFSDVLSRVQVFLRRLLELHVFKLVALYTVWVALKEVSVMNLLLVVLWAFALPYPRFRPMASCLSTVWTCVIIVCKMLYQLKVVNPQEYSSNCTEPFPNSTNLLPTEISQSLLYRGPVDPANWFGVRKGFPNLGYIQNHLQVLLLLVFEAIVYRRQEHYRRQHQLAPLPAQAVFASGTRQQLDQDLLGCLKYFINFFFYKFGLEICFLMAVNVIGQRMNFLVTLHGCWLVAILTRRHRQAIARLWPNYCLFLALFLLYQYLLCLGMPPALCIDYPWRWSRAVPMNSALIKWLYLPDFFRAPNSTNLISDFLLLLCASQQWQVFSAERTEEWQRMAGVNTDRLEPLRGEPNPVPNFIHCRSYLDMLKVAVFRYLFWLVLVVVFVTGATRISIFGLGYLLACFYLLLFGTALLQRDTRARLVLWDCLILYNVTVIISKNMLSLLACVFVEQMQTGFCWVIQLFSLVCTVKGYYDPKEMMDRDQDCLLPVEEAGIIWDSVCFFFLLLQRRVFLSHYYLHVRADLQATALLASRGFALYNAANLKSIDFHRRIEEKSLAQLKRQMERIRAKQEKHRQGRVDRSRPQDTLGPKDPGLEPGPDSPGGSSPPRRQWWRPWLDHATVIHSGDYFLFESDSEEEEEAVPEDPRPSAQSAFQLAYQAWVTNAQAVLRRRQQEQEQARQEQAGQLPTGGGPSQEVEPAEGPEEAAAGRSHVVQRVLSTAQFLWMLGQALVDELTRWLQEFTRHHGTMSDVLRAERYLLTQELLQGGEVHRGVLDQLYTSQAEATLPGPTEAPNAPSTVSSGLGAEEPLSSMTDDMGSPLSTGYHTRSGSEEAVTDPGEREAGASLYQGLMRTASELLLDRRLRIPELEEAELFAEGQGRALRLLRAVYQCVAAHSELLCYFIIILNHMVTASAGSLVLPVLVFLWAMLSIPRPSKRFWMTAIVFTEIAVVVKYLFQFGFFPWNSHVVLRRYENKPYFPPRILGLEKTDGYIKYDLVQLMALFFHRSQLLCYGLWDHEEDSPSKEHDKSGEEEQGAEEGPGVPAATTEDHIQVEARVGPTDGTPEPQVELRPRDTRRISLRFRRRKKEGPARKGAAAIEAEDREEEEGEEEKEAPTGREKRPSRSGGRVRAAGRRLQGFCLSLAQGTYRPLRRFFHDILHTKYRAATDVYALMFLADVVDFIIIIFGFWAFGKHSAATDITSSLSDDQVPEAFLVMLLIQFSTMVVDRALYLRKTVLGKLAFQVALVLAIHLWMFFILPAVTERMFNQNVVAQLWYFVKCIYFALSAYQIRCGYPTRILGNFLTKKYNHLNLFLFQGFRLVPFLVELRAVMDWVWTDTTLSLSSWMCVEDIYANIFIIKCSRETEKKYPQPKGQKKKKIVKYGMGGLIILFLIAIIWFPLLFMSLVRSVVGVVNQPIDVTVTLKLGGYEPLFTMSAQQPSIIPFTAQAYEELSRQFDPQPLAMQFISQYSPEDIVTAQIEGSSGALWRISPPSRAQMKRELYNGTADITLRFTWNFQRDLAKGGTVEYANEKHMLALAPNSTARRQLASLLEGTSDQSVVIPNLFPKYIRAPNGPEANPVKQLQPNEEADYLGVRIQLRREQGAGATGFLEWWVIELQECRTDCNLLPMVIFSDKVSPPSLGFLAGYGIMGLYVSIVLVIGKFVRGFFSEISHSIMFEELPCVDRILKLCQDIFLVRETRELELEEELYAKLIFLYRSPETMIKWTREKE

mouse Piezo1 = target: T2, mouse Piezo1 (Mus musculus, UniProt E2JF22); test: as above; format: cell-based
T2 construct: the Dooku1 and ruthenium red rows are from native C57BL/6J cardiac fibroblasts
T2 sequence (E2JF22 whole entry): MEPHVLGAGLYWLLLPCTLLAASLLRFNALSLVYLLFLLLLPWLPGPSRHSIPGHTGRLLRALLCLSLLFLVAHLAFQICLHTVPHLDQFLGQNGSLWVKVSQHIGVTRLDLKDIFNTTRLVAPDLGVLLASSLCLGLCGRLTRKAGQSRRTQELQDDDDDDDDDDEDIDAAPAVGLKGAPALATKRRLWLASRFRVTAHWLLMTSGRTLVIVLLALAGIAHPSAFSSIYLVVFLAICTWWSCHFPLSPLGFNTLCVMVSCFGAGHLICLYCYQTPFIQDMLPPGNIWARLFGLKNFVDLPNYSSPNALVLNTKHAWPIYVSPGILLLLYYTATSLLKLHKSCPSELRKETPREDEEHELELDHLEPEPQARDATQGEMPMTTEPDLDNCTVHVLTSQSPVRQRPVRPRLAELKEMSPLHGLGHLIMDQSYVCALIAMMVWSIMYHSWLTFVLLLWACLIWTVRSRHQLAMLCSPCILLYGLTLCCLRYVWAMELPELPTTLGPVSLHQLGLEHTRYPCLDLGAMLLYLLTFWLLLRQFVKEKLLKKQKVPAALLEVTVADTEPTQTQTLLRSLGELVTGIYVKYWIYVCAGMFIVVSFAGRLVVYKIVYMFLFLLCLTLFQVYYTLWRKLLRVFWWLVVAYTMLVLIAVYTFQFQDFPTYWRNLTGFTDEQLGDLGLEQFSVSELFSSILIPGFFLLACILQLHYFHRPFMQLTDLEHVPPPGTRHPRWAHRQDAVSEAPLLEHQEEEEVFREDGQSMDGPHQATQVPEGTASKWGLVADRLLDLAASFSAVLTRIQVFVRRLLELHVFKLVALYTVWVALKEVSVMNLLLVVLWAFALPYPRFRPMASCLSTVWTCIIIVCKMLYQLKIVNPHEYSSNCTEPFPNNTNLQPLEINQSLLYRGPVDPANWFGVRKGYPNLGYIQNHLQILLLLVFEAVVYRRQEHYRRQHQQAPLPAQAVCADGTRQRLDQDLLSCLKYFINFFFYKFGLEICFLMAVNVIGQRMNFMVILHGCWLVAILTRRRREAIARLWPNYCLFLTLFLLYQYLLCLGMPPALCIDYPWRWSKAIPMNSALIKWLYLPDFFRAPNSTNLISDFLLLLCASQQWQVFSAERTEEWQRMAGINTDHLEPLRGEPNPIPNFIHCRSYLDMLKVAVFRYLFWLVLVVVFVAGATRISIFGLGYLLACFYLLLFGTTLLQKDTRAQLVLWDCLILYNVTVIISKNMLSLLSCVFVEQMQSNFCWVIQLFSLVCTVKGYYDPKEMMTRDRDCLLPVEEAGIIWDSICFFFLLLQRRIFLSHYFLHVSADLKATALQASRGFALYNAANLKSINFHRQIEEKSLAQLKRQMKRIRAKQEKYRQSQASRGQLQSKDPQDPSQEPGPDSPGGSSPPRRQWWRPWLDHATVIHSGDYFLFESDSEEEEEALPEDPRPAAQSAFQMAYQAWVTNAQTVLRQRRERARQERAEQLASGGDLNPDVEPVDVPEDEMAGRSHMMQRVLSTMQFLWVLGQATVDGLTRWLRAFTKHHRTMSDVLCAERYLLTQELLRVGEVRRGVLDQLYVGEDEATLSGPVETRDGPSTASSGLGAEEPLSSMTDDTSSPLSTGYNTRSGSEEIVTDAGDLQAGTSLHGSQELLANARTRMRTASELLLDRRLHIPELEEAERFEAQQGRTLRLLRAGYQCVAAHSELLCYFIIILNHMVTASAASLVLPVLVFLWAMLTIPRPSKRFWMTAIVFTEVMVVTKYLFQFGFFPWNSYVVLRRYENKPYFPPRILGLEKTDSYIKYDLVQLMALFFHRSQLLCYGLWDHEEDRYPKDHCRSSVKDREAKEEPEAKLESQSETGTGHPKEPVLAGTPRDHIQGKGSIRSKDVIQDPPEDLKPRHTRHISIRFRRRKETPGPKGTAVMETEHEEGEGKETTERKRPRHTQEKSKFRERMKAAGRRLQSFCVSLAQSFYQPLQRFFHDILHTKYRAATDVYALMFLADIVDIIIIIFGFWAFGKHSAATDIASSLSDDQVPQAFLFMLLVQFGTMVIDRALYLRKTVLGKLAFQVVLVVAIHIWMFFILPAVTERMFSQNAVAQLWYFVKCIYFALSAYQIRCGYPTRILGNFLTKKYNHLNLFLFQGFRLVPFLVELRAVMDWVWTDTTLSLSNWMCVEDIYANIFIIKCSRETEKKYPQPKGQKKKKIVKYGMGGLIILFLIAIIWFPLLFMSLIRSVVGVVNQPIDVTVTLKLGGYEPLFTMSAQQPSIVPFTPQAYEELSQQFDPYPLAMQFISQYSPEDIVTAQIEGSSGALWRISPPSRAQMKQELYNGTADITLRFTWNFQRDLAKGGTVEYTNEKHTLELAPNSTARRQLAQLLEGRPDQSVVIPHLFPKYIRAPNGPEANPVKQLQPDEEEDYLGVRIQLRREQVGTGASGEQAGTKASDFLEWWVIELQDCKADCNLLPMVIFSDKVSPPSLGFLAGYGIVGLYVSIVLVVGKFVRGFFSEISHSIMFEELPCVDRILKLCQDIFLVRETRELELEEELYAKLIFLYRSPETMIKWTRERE

EC50 [1]: 710 nM
EC50 (mouse Piezo1): 330 nM
Compound: Clc1cccc(Cl)c1CSc1nnc(-c2cnccn2)s1 [Yoda1]
